The text below walks through data of patent publication US20220016112A1, “DIHYDROQUINOXALINE AND DIHYDROPYRIDOPYRAZINE DERIVATIVES AS RSV INHIBITORS” (Enanta Pharmaceuticals, Inc., priority 2020, published 2022).

In this assay the test system is Human RSV-A (“Long” strain). Put plainly: RSV in vitro cytoprotection assay in HEp-2 cells (ATPlite readout). The following applies: human respiratory syncytial virus. Type of assay: cell-based. From the text:
RSV is a single stranded negative sense RNA virus that causes respiratory tract infections which can be dangerous to infants, the elderly, and immunosuppressed individuals. Currently there is no vaccine, and therapeutic options are both costly and of limited effectiveness. These approved treatments are Ribavirin, and Palivizumab/Synagis (a monoclonal antibody). RSV has two genotypes, A and B, which differ primarily in the structure of the virus' surface “G” attachment protein. Our current primary screen focusses on RSV-A and uses an in vitro cytoprotection assay where compounds are added in 2-fold dilutions to cells which are then subjected to fully replicative viral particles. Cell viability is measured several days later along with separate measurements of compound cytotoxicity. This report focuses on the results of our most recent screening of compounds.
HEp-2 cells, (originally derived from tumors grown in irradiated-cortisonised weanling rats that had been injected with epidermoid carcinoma tissue from a person's larynx, but later found to be indistinguishable from HeLa cells by PCR DNA analysis), were used for the culturing of genotype A, “Long” strain RSV. Flasks were inoculated with RSV and viral stocks were collected once cytopathic effect (CPE) was greater than 90%. Viral stocks in 25% sucrose media were snap frozen using liquid nitrogen to increase viral stability. Viral stock titers were quantified by tissue culture infectious dose 50% (TCID50) using 8,000 cells per well and 3-fold viral dilutions across a 96-well plate, cultured for 4 days.
Following extensive parameter testing, the final assay is run as follows: HEp-2 cells are seeded into the inner 60 wells of a 96-well plate at 8,000 cells per well in a volume of 50 μL using Growth Media (DMEM without phenol red, 1% L-Glut, 1% Penn/Strep, 1% nonessential amino acids, 10% FBS). 2-Fold serial dilutions of control and test compounds are added to the wells in duplicate in a total volume of 25 μL. Viral stock is then added to the wells in a volume of 25 μL, bringing the total volume of each well to 100 μL. Each 96-well plate has a control column of 6 wells with cells and virus but no compound (negative control, max CPE), a column with cells but no compound or virus (positive control, minimum CPE), and a column with no cells or virus or compound (background plate/reagent control). The control wells with cells but no virus are given an additional 25 uL of growth media containing an equal quantity of sucrose as those wells receiving the viral stock in order to keep consistent in media and volume conditions. The outer wells of the plate are filled with 125 μL of growth media to act as a thermal and evaporative moat around the test wells. Following a 4-day incubation period, the plates are read using ATPlite (50 uL added per well), which quantifies the amount of ATP (a measure of cell health) present in each well. Assay plates are read using the Envision luminometer. In parallel, cytotoxicity is examined on an additional 96-well plate treated in an identical manner, but substituting the 25 μL of viral stock for 25 μL of growth media. […] EC50 ranges are as follows: A<0.01 μM; B 0.01-0.05 μM; C>0.05 μM.
(ATP-based viability assays read luminescence as a measure of living cells.)

Where [1] appears, read: 96 h, HEp-2 cells, genotype A “Long” strain RSV, 4-day incubation, ATPlite, read-out: Human RSV-A (“Long” strain) EC50.

SMILES strings stand for the structures. pEC50: −log10 of the molar value. Read-outs that look alike come from different tables or passages of the source.

With `Cc1cnc(N2CC3(CCOCC3)C2)c(C(=O)Nc2ccc(C(=O)N3c4ccccc4N=C(c4ccc(C(=O)Nc5ncccc5F)s4)[C@H]3C)cc2)c1` [Example 14], the pEC50 under setting [1] was 7.30 to 8.00.

Take `C[C@@H]1C(c2ccc(C(=O)NC3CCC3)s2)=Nc2ccccc2N1C(=O)c1ccc(NC(=O)c2cc(C(F)(F)F)cnc2N2CC3(CCOCC3)C2)cc1` [Example 24]: under setting [1], the pEC50 was 7.30 to 8.00.

For the compound `Cc1cnc(N2CC3(CCOCC3)C2)c(C(=O)Nc2ccc(C(=O)N3c4ccccc4N=C(c4ccc(C(=O)NC5CC(F)(F)C5)s4)[C@H]3C)cc2)c1` [Example 10], the pEC50 under setting [1] is 7.30 to 8.00.

As to `CCc1cnc(N2CC3(CCOCC3)C2)c(C(=O)Nc2ccc(C(=O)N3c4ccccc4N=C(c4ccc(C(=O)NC5CC5)s4)[C@H]3C)cc2)c1` [Example 21], under setting [1], the negative logarithm of the EC50 (pEC50) is greater than 8.00.

Turning to `Cc1ccc(C(=O)Nc2ccc(C(=O)N3c4ccccc4N=C(c4ccc(C(=O)NC5CC5)s4)[C@H]3C)cc2)c(N2CC3(CCOCC3)C2)n1` [Example 15], under setting [1], the pEC50 was greater than 8.00.

Regarding `Cc1cnc(N2CC3(CCOCC3)C2)c(C(=O)Nc2ccc(C(=O)N3c4ccccc4N=C(c4ccc(C(=O)Nc5c(C)cccc5F)cc4)[C@H]3C)cc2)c1` [Example 26], under setting [1], the pEC50 was less than 7.30.

As for `Cc1cnc(N2CC3(CCOCC3)C2)c(C(=O)Nc2ccc(C(=O)N3c4ncccc4N=C(c4ccc(C(=O)NC5CCC5)s4)[C@H]3C)cc2)c1` [Example 31], the pEC50 under setting [1] is 7.30 to 8.00.

Consider `Cc1cnc(N2CC3(CCOCC3)C2)c(C(=O)Nc2ccc(C(=O)N3c4ccccc4N=C(c4ccc(C(=O)NC5CC5)s4)C3(C)C)cc2)c1` [Example 27], for which the pEC50 under setting [1] is less than 7.30.

As to `Cc1cnc(N2CC3(CCOCC3)C2)c(C(=O)Nc2ccc(C(=O)N3c4ccccc4N=C(c4ccc(C(=O)Nc5c(C)cccc5F)cc4)[C@@H]3C)cc2)c1` [Example 5], under setting [1], the negative-log EC50 (pEC50) is less than 7.30.

With `Cc1ccc(C(=O)Nc2ccc(C(=O)N3c4ccccc4N=C(c4ccc(C(=O)NC5CCC5)s4)[C@H]3C)cc2)c(N2CC3(CCOCC3)C2)n1` [Example 16], the negative logarithm of the EC50 (pEC50) under setting [1] was greater than 8.00.

For the compound `C[C@@H]1C(c2ccc(C(=O)NC3CCC3)s2)=Nc2ccccc2N1C(=O)c1ccc(NC(=O)c2cc(C3CC3)cnc2N2CC3(CCOCC3)C2)cc1` [Example 20], the pEC50 under setting [1] is greater than 8.00.

Regarding `Cc1cnc(N2CC3(CCOCC3)C2)c(C(=O)Nc2ccc(C(=O)N3c4ccccc4N=C(c4ccc(C(=O)Nc5c(C)cccc5F)s4)[C@H]3C)cc2)c1` [Example 7], under setting [1], the pEC50 was 7.30 to 8.00.

As for `Cc1cnc(N2CC3(CCOCC3)C2)c(C(=O)Nc2ccc(C(=O)N3c4ccccc4N=C(c4ccc(C(=O)NC5CC5)s4)[C@H]3C)cc2)c1` [Example 6], the pEC50 under setting [1] was greater than 8.00.

Regarding `C[C@@H]1C(c2ccc(C(=O)NC3CC3)s2)=Nc2ccccc2N1C(=O)c1ccc(NC(=O)c2cc(C(F)(F)F)cnc2N2CC3(CCOCC3)C2)cc1` [Example 23], the pEC50 under setting [1] was 7.30 to 8.00.

For `Cc1cnc(N2CC3(CCOCC3)C2)c(C(=O)Nc2ccc(C(=O)N3c4ccccc4N=C(c4ccc(C(=O)NC5(C)CC5)s4)[C@H]3C)cc2)c1` [Example 8], under setting [1], the negative-log EC50 (pEC50) is greater than 8.00.

Take `O=C(Nc1ccccc1F)N[C@H]1N=C(c2ccccc2)c2ccccc2NC1=O` [RSV-604, reference compound]: the negative logarithm of the EC50 (pEC50) (HEp-2) was roughly 5.62.

Turning to `Cc1cnc(N2CC3(CCOCC3)C2)c(C(=O)Nc2ccc(C(=O)N3c4ccccc4N=C(c4ccc(C(=O)NC5CC5)cc4)[C@@H]3C)cc2)c1` [Example 4], the negative-log EC50 (pEC50) under setting [1] was less than 7.30.

With `Cc1cnc(N2CC3(CCOCC3)C2)c(C(=O)Nc2ccc(C(=O)N3c4ccccc4N=C(c4ccc(C(=O)NC5CC5)s4)[C@@H]3C)cc2)c1` [Example 1], under setting [1], the pEC50 was 7.30 to 8.00.

Regarding `Cc1cnc(N2CC3(CCOCC3)C2)c(C(=O)Nc2ccc(C(=O)N3c4ccccc4N=C(c4ccc(C(=O)NC5CCC5)s4)[C@H]3C)cc2)c1` [Example 9], the pEC50 under setting [1] is greater than 8.00.

For the compound `C[C@@H]1C(c2ccc(C(=O)NC3CC3)s2)=Nc2ccccc2N1C(=O)c1ccc(NC(=O)c2cc3c(nc2N2CC4(CCOCC4)C2)CCC3)cc1` [Example 17], under setting [1], the pEC50 is greater than 8.00.

Take `C[C@@H]1C(c2ccc(C(=O)NC3CC3)s2)=Nc2ccccc2N1C(=O)c1ccc(NC(=O)c2cc(C3CC3)cnc2N2CC3(CCOCC3)C2)cc1` [Example 19]: under setting [1], the pEC50 was greater than 8.00.

In the case of `Cc1cnc(N2CC3(CCOCC3)C2)c(C(=O)Nc2ccc(C(=O)N3c4cccnc4N=C(c4ccc(C(=O)NC5CCC5)s4)[C@H]3C)cc2)c1` [Example 29], the negative logarithm of the EC50 (pEC50) under setting [1] is 7.30 to 8.00.

For the compound `Cc1cnc(N2CC3(CCOCC3)C2)c(C(=O)Nc2ccc(C(=O)N3c4ccccc4N=C(c4ccc(C(=O)NC5CC5)cc4)[C@H]3C)cc2)c1` [Example 25], the negative logarithm of the EC50 (pEC50) under setting [1] is less than 7.30.

In the case of `Cc1cnc(N2CC3(CCOCC3)C2)c(C(=O)Nc2ccc(C(=O)N3c4ccccc4N=C(c4ccc(C(=O)NC56CC(C5)C6)s4)[C@H]3C)cc2)c1` [Example 12], the pEC50 under setting [1] is greater than 8.00.

`Cc1cnc(N2CC3(CCOCC3)C2)c(C(=O)Nc2ccc(C(=O)N3c4ccccc4N=C(c4ccc(C(=O)NC5CCC5)s4)C3(C)C)cc2)c1` [Example 28]: under setting [1], the negative-log EC50 (pEC50) was greater than 8.00.

For `C[C@@H]1C(c2ccc(C(=O)NC3CCC3)s2)=Nc2ccccc2N1C(=O)c1ccc(NC(=O)c2cc3c(nc2N2CC4(CCOCC4)C2)CCC3)cc1` [Example 18], the pEC50 under setting [1] was greater than 8.00.

For the compound `Cc1cnc(N2CC3(CCOCC3)C2)c(C(=O)Nc2ccc(C(=O)N3c4ccccc4N=C(c4ccc(C(=O)NC5CCC5)s4)[C@@H]3C)cc2)c1` [Example 3], the negative logarithm of the EC50 (pEC50) under setting [1] was less than 7.30.

`Cc1cnc(N2CC3(CCOCC3)C2)c(C(=O)Nc2ccc(C(=O)N3c4ncccc4N=C(c4ccc(C(=O)NC5CC5)s4)[C@H]3C)cc2)c1` [Example 30]: the negative logarithm of the EC50 (pEC50) under setting [1] was less than 7.30.

Regarding `Cc1cnc(N2CC3(CCOCC3)C2)c(C(=O)Nc2ccc(C(=O)N3c4ccccc4N=C(c4ccc(C(=O)NC56CC(C)(C5)C6)s4)[C@H]3C)cc2)c1` [Example 13], the negative-log EC50 (pEC50) under setting [1] is greater than 8.00.

In the case of `Cc1cnc(N2CC3(CCOCC3)C2)c(C(=O)Nc2ccc(C(=O)N3c4ccccc4N=C(c4ccc(C(=O)NC5(C)CCC5)s4)[C@H]3C)cc2)c1` [Example 11], the pEC50 under setting [1] was greater than 8.00.

Consider `Cc1cnc(N2CC3(CCOCC3)C2)c(C(=O)Nc2ccc(C(=O)N3c4ccccc4N=C(c4ccc(C(=O)Nc5c(C)cccc5F)s4)[C@@H]3C)cc2)c1` [Example 2], for which the negative-log EC50 (pEC50) under setting [1] was less than 7.30.

Turning to `CCc1cnc(N2CC3(CCOCC3)C2)c(C(=O)Nc2ccc(C(=O)N3c4ccccc4N=C(c4ccc(C(=O)NC5CCC5)s4)[C@H]3C)cc2)c1` [Example 22], under setting [1], the pEC50 is greater than 8.00.

Usually pEC50 stands for the EC50 on a negative log10 scale, so that one unit is a factor of ten.
